Data: ChEMBL document CHEMBL4715792, “In Vivo and In Vitro Optimization of Screening Antimalarial Hits toward Lead Molecules for Preclinical Development” (J Med Chem, 2016)
Values after ≈ are worked out from the molar mass of the structure shown.

Legend:
[1] = Selectivity index, ratio of CC50 for human MRC5 cells to EC50 for antimalarial activity against Plasmodium falciparum 3D7; assay type: toxicity; settings: read-out: Selectivity Index
[2] = Intrinsic clearance in mouse liver microsomes; assay type: ADME, Microsome
[3] = Aqueous solubility of compound; assay type: physicochemical
Plasmodium falciparum [4] = test: Antimalarial activity against Plasmodium falciparum 3D7; assay type: functional, organism-based
Plasmodium falciparum [5] = test: Antimalarial activity against drug resistant Plasmodium falciparum W2; assay type: functional, organism-based
Plasmodium falciparum [6] = test: Antimalarial activity against drug resistant Plasmodium falciparum V1/S; assay type: functional, organism-based
Plasmodium falciparum [7] = test: Antimalarial activity against drug resistant Plasmodium falciparum NF5; assay type: functional, organism-based
Plasmodium falciparum [8] = test: Antimalarial activity against drug resistant Plasmodium falciparum TM90C2A; assay type: functional, organism-based
Plasmodium berghei [9] = test: Antimalarial activity against Plasmodium berghei infected in mouse assessed as reduction in parasitemia at 1 mg/kg, po dosed 4 times; assay type: functional
Plasmodium berghei [10] = test: Antimalarial activity against Plasmodium berghei infected in orally dosed mouse assessed as reduction in parasitemia; assay type: functional; settings: po
Plasmodium falciparum [11] = test: Antimalarial activity against drug resistant Plasmodium falciparum D6; assay type: functional, organism-based
Plasmodium falciparum [12] = test: Antimalarial activity against drug resistant Plasmodium falciparum K1; assay type: functional, organism-based
Plasmodium falciparum [13] = test: Antimalarial activity against drug resistant Plasmodium falciparum 7G8; assay type: functional, organism-based

Cc1ccc(-c2cc(C(=O)Nc3cccnc3)c3cc(Br)ccc3n2)cc1
selectivity ratio [1]: > 100
Intrinsic clearance [2]: >= 5 ml/min/g
solubility [3]: ≤ 39 µM

Cc1ccc(-c2cc(C(=O)Nc3cccnc3)c3cc(F)ccc3n2)cc1
Intrinsic clearance [2]: 8.6 mL/min/g
solubility [3]: 36 µM (≈ 12.9 µg/mL)

Cc1ccc(-c2cc(C(=O)NCCN3CCCC3)c3cc(F)ccc3n2)cc1
EC50 (Plasmodium falciparum [4]): 700 nM
Intrinsic clearance [2]: 3.4 mL/min/g

O=C(NCCN1CCCC1)c1cc(-c2ccc(CN3CCOCC3)cc2)nc2ccc(F)cc12 [CABAMIQUINE]
EC50 (Plasmodium falciparum [5]): < 1 nM
EC50 (Plasmodium falciparum [6]): < 1 nM
EC50 (Plasmodium falciparum [7]): < 1 nM
EC50 (Plasmodium falciparum [4]): 1 nM
Intrinsic clearance [2]: < 0.9 mL/min/g
EC50 (Plasmodium falciparum [8]): < 1 nM
inhibition in vivo at 1 mg/kg (Plasmodium berghei [9]): > 99%
ED90 (Plasmodium berghei [10]): 0.3 mg/kg
EC50 (Plasmodium falciparum [11]): < 1 nM
EC50 (Plasmodium falciparum [12]): < 1 nM
EC50 (Plasmodium falciparum [13]): < 1 nM
